Counter-ions that a name gives are not always drawn.
What was measured:
[1] = target: T1, prostaglandin E2-induced contractions of segments of guinea pig ileum (Cavia porcellus, UniProt A0A286XHJ6); experiment: Prostaglandin (PGE) Antagonism Assay (guinea pig ileum); assay type: cell-based, male albino guinea pigs; settings: estimated from 3 micromolar (dose ratio ≥2) or Schild plot (dose ratio ≥5); 37° C.; read-out: PGE ANTAGONISM IN GUINEA PIG ILEUM (pA2) (converted)
T1 construct: Segments of ileum about 2 cm long were then cut and mounted in a 10-mL tissue bath; from tissue; host or cells: guinea pig ileum segments
T1 sequence (A0A286XHJ6 1-405): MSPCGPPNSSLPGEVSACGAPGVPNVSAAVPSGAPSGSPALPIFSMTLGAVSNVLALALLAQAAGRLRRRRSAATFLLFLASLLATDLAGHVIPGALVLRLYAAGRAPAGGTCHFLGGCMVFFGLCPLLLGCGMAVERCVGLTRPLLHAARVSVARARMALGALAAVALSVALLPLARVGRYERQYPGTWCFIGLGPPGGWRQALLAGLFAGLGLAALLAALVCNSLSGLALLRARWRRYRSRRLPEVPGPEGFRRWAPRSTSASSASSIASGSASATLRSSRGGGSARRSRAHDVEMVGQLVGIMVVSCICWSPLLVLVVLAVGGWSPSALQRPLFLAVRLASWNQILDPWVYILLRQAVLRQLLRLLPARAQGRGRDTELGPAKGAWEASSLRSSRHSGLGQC
Source text: The phrase "EC50 concentration" as used herein means that concentration of a compound or drug which is necessary to elicit a 50% maximal biological response and, thus, which is necessary to elicit a 50% reduction in the contractions of guinea pig ileum segments in a prostaglandin antagonism assay. (b) Prostaglandin (PGE) Antagonism Assay In order to determine the effectiveness of several of the compounds of the present invention ("test compounds") as prostaglandin E2 antagonists,a prostaglandin antagonism assay was conducted, as described below, to determine the ability of these compounds to inhibit prostaglandin E2 -induced contractions of segments of guinea pig ileum. […] Male albino guinea pigs weighing 200 to 500 grams were sacrificed by cervical dislocation. The ilea were then quickly removed from the guinea pigs and placed in a modified Tyrode solution, a solution which is known to those skilled in the art, containing one-half of the usual amount of magnesium ions. Segments of ileum about 2 cm long were then cut and mounted in a 10-mL tissue bath containing the modified Tyrode solution. The solution was maintained at 37° C. and aerated with a gaseous mixture of 95% oxygen and 5% carbon dioxide. Data for a control prostaglandin E2 dose response curve plotting concentration of prostaglandin E2 versus the intensity of contractions, detected isotonically, was then obtained by experimentally adjusting the dose of the prostaglandin E2 being injected into the tissue bath, in a manner known by those of skill in the art. Solutions or suspensions containing an initial concentration (3 micromolar) of a test compound in modified Tyrode solution ("test solutions/suspensions") were then separately substituted for the control bath solution. Each test solution/suspension was then kept in constant contact with the ileum tissue, except for brief periods to drain the bath in preparation for rinsing with fresh test solution/suspension. A second prostaglandin E2 dose response curve was then generated for prostaglandin E2 in the presence of a test compound. A dose ratio of EC50 doses was then calculated from the results of each test in a manner known by those of skill in the art. A test compound was determined to be "active" if the initial concentration used yielded at least a two-fold shift (dose ratio greater than or equal to 2) in the dose response curve for prostaglandin E2. […] The compounds of the present invention which were tested in this assay, and for which results are presented in Table 1, correspond to the particular examples specified in Table 1.

[2] = Writhing Assay (PBQ-induced writhing, analgesia); assay type: in vivo, Charles River male albino mice; settings: Mus musculus, po; intragastric, 30 mg per kilogram, 25 minutes before PBQ i.p.; writhes ≤ one-half median of saline control; read-out: WRITHING ASSAY, number of mice out of 9 or 10 in which test compound produced analgesia (converted)
Procedure: The phrase "ED50 dose" as used herein means that dose of a compound or drug which produced a biological effect, such as producing analgesia, in 50% of the animals to which the compound or drug was administered. The Writhing Assay is one of the most widely-used experimental procedures for measuring the analgesic activity of different narcotic and nonnarcotic analgesic agents, and involves the continuous, chemically-induced pain of visceral origin to an animal, such as a mouse or rat. [Gyires et al., Arch. int. Pharmacodyn, 267, 131-140 (1984); […] al., Fed. Proc., 15, 494 (1956); Koster et al., Fed. Proc., 18, 412 (1959); and Witken et al., J. Pharmacol. exp. Ther., 133, 400-408 (1961).] Chemicals which may be used to induce this pain include phenylbenzoquinone (PBQ) and acetic acid. As a result of the chemical irritation to the animal, a characteristic stretching and writhing of the animal (dorsiflexion of the animal's back, extension of its hindlimbs and the strong contraction of its abdominal musculature) will generally occur. […] Drugs which reduce the number of writhes of the animal appear to restore the normal nociceptive threshold of the animal. […] Charles River male albino mice, weighing 20 to 30 grams were used in this assay. Twenty-five minutes after intragastric administration to nine or ten mice of 30 mg per kilogram of body weight of a compound of the present invention ("test compound"), […] per 10 g of body weight of a 0.025% w/v solution of PBQ was injected intraperitoneally into each mouse. Ten mice which were given saline in place of a test compound of the invention were used as a control group. Five minutes later, each mouse was individually placed into a glass beaker for observation, and the number of writhes occurring during the following ten-minute period was counted. A test compound was considered to have produced analgesia in a mouse if, in accordance with the conditions set forth above, and under the test criteria employed for this assay, after the administration of 30 mg per kilogram of body weight of a compound of the present invention to the mouse, the number of writhes elicited by a mouse injected with PBQ was equal to, or less than, one-half the median number of writhes recorded for the saline-treated control group of mice that day, as described by Taber in "Predictive Value of Analgesic Assays in Mice and Rats," Advances in Biochemical Psychopharmacology, 8, 191 (1974). The results for the particular compounds of the present invention analyzed in this assay, and discussed in the examples identified below which correspond thereto, are presented in Table 1 hereinbelow as fractions under the heading "WRITHING ASSAY." The fractions indicate the number of mice out of nine or ten in which a test compound produced analgesia. The standard initial screening dose of a test compound employed in this assay was 30 milligrams per […] of body weight. If this initial screening dose of the test compound produced analgesia in seven of nine or ten mice, then the effect of additional doses of the test compound on the writhing response was evaluated, and then the ED50 dose was generally calculated. (The slopes of the dose-response curves for all test compounds analyzed were compared as described by Tallarida and Murray, Manual of Pharmacologic Calculations, Page 11 (Springer Verlag, New York, 1981)). All ED50 doses calculated are also presented below as whole numbers in Table 1, under the heading "WRITHING ASSAY."

SMILES	Kb [1] [nM]	responders at 30 mg/kg [2] [%]
O=C(NCc1ccncc1)c1csc(CN2Cc3ccccc3Oc3ccc(Cl)cc32)n1 [Example 21, 2-[(8-chlorodibenzb,f][1,4]oxazepin-10(11H)yl)methyl]-N-(4-pyridinylmethyl)-4-thiazolecarboxamide, acetate, hydrochloride]	794	70
CCOC(=O)c1csc(CN2Cc3ccccc3Oc3ccc(Cl)cc32)n1 [Example 19, ethyl 2-[(8-chlorodibenz[b,f][1,4]oxazepine-10(11H)yl)methyl]-4-thiazolecarboxylate]	1580	10
O=C(NCc1ccccn1)c1coc(CN2Cc3ccccc3Oc3ccc(Cl)cc32)n1 [Example 10, 2-[(8-chlorodibenz[b,f][1,4]oxazepin-10(11H)yl)methyl]-N-(2-pyridinylmethyl)-4-oxazolecarboxamide, monohydrochloride]	31.6	20
O=C(NCc1ccncc1)c1coc(CN2Cc3ccccc3Oc3ccc(Cl)cc32)n1 [Example 11, 2-[(8-chlorodibenz[b,f][1,4]oxazepin-10(11H)yl)methyl]-N-(4-pyridinylmethyl)-4-oxazolecarboxamide, monohydrochloride]	25.1	90
O=C(NCc1csc(N2Cc3ccccc3Oc3ccc(Cl)cc32)n1)c1ccncc1 [Example 36, N-[[2-(8-Chlorodibenz[b,f][1,4]oxazepin-10(11H)-yl)-4-thiazolyl]methyl]-4-pyridinecarboxamide, hydrochloride]	631	60

Source: patent publication US5395932A, “2,3-,4-,5-,6-,7-,8-,9- and/or 10-substituted dibenzoxazepine compounds, pharmaceutical compositions and methods of use” (G. D. Searle & Co., priority 1993, dated 1995)
